Laboratory results as given in publication PMC12286210, “Immobilization of Pleurotus eryngii Laccase via a Protein–Inorganic Hybrid for Efficient Degradation of Bisphenol A as a Potent Xenobiotic” (Journal of Xenobiotics, 2025).

Tested on: T1, PeLac (Pleurotus eryngii laccase)
T1 construct: gene ery3
Settings: free enzyme, partially purified; ABTS 0.01-2.0 mM; 25 °C; co-substrate O2

Compound: CCn1c(=NN=c2sc3cc(S(=O)(=O)O)ccc3n2CC)sc2cc(S(=O)(=O)O)ccc21 [ABTS]
- Km: 118 ± 8.9 µM
